Calls of active or inactive are those of the source. No cut-off for these calls is given here.
Legend:
A549 [1] = test: Antiproliferative activity against human A549 cells assessed as cell viability rate at 5 uM incubated for 72 hrs by MTT assay relative to control; assay type: functional
NCI-H460 = test: Antiproliferative activity against human NCI-H460 cells assessed as inhibition of cell proliferation incubated for 72 hrs by MTT assay; assay type: functional, cell-based; conditions: NCI-H460, 72 h
HepG2 = test: Antiproliferative activity against human HepG2 cells assessed as inhibition of cell proliferation incubated for 72 hrs by MTT assay; assay type: functional, cell-based; conditions: HepG2, 72 h
[2] = Cytotoxicity against human MCF-10A cells assessed as inhibition of cell proliferation incubated for 72 hrs by MTT assay; assay type: toxicity, cell-based
A549 [3] = test: Induction of cell cycle arrest in RXRalpha knockout human A549 cells assessed as accumulation of cells at G2 phase at 125 nM incubated for 12 hrs by DAPI staining based flow cytometry analysis (reference value: 14.97%); assay type: functional
A549 [4] = test: Induction of cell cycle arrest in wild type human A549 cells assessed as accumulation of cells at G1 phase at 125 nM incubated for 12 hrs by DAPI staining based flow cytometry analysis (reference value: 36.89 %); assay type: functional
A549 [5] = test: Induction of cell cycle arrest in wild type human A549 cells assessed as accumulation of cells at S phase at 125 nM incubated for 12 hrs by DAPI staining based flow cytometry analysis (reference value: 41.12 %); assay type: functional
A549 [6] = test: Induction of apoptosis in human A549 cells assessed as dead cells at 62.5 nM incubated for 24 hrs by annexin V-FITC/PI staining based flow cytometry analysis (reference value: 0.75%); assay type: functional
A549 [7] = test: Induction of apoptosis in human A549 cells assessed as early apoptotic cells at 62.5 nM incubated for 24 hrs by annexin V-FITC/PI staining based flow cytometry analysis (reference value: 0.78%); assay type: functional
A549 [8] = test: Induction of apoptosis in human A549 cells assessed as dead cells at 31.25 nM incubated for 24 hrs by annexin V-FITC/PI staining based flow cytometry analysis (reference value: 0.75%); assay type: functional
MDA-MB-231 [9] = test: Induction of cell cycle arrest in human MDA-MB-231 cells assessed as accumulation of cells at G1 phase at 15.625 nM incubated for 12 hrs by flow cytometry analysis (reference value: 43.2%); assay type: functional; conditions: 0.01562 µM
A549 [10] = test: Induction of cell cycle arrest in human A549 cells assessed as accumulation of cells at G1 phase at 15.625 nM incubated for 12 hrs by flow cytometry analysis (reference value: 59.57%); assay type: functional; conditions: 0.01562 µM
A549 [11] = test: Induction of cell cycle arrest in human A549 cells assessed as accumulation of cells at S phase at 15.625 nM incubated for 12 hrs by flow cytometry analysis (reference value: 31.81%); assay type: functional; conditions: 0.01562 µM
A549 [12] = test: Induction of cell cycle arrest in human A549 cells assessed as accumulation of cells at G2 phase at 15.625 nM incubated for 12 hrs by flow cytometry analysis (reference value: 8.62%); assay type: functional; conditions: 0.01562 µM
A549 [13] = test: Induction of cell cycle arrest in human A549 cells assessed as accumulation of cells at S phase at 31.25 nM incubated for 12 hrs by flow cytometry analysis (reference value: 31.81%); assay type: functional
A549 [14] = test: Induction of cell cycle arrest in human A549 cells assessed as accumulation of cells at G2 phase at 31.25 nM incubated for 12 hrs by flow cytometry analysis (reference value: 8.62%); assay type: functional
A549 [15] = test: Induction of cell cycle arrest in human A549 cells assessed as accumulation of cells at G1 phase at 125 nM incubated for 12 hrs by flow cytometry analysis (reference value: 59.57%); assay type: functional
A549 [16] = test: Induction of cell cycle arrest in human A549 cells assessed as accumulation of cells at S phase at 125 nM incubated for 12 hrs by flow cytometry analysis (reference value: 31.81%); assay type: functional
MDA-MB-231 [17] = test: Induction of apoptosis in human MDA-MB-231 cells assessed as late apoptotic cells at 31.25 nM incubated for 24 hrs by annexin V-FITC/PI staining based flow cytometry analysis (reference value: 5.93%); assay type: functional
MDA-MB-231 [18] = test: Induction of apoptosis in human MDA-MB-231 cells assessed as dead cells at 62.5 nM incubated for 24 hrs by annexin V-FITC/PI staining based flow cytometry analysis (reference value: 0.69%); assay type: functional
MDA-MB-231 [19] = test: Induction of apoptosis in human MDA-MB-231 cells assessed as late apoptotic cells at 125 nM incubated for 24 hrs by annexin V-FITC/PI staining based flow cytometry analysis (reference value: 5.93%); assay type: functional
MDA-MB-231 [20] = test: Induction of apoptosis in human MDA-MB-231 cells assessed as dead cells at 125 nM incubated for 24 hrs by annexin V-FITC/PI staining based flow cytometry analysis (reference value: 0.69%); assay type: functional
MDA-MB-231 [21] = test: Induction of apoptosis in human MDA-MB-231 cells assessed as live cells at 250 nM incubated for 24 hrs by annexin V-FITC/PI staining based flow cytometry analysis (reference value: 91.3%); assay type: functional
MDA-MB-231 [22] = test: Induction of apoptosis in human MDA-MB-231 cells assessed as early apoptotic cells at 250 nM incubated for 24 hrs by annexin V-FITC/PI staining based flow cytometry analysis (reference value: 2.03%); assay type: functional
MDA-MB-231 [23] = test: Induction of apoptosis in human MDA-MB-231 cells assessed as dead cells at 250 nM incubated for 24 hrs by annexin V-FITC/PI staining based flow cytometry analysis (reference value: 0.69%); assay type: functional
[24] = Apparent clearance during terminal phase in Sprague-Dawley rat at 25 mg/kg, ip measured for 48 hrs by LC-MS/MS analysis; assay type: ADME, organism-based; conditions: in vivo, read-out: CLz/F (converted)
[25] = Apparent volume of distribution during terminal phase in Sprague-Dawley rat at 25 mg/kg, ip measured for 48 hrs by LC-MS/MS analysis; assay type: ADME, organism-based; conditions: in vivo, read-out: Vz/F
MDA-MB-231 [26] = test: Antitumor activity against human MDA-MB-231 cells xenografted in BALB/c nude mouse assessed as nuclear shrinkage in tumor at 25 mg/kg/day, ip administered for 15 days by immunohistochemical analysis; assay type: functional, organism-based; conditions: time 15.0 day
MDA-MB-231 [27] = test: Antitumor activity against human MDA-MB-231 cells xenografted in BALB/c nude mouse assessed as reduction in RXRalpha protein expression at 25 mg/kg/day, ip administered for 15 days by immunohistochemical analysis; assay type: functional, organism-based; conditions: time 15.0 day
MDA-MB-231 [28] = test: Antitumor activity against human MDA-MB-231 cells xenografted in BALB/c nude mouse assessed as inhibition of tumor growth by measuring chromosome aberrations at 12.5 to 25 mg/kg/day, ip administered for 15 days; assay type: functional, organism-based; conditions: dose 12.5-25 mg/kg/day, time 15.0 day
MDA-MB-231 [29] = test: Antitumor activity against human MDA-MB-231 cells xenografted in BALB/c nude mouse assessed as inhibition of tumor growth by measuring DNA damaging response at 12.5 to 25 mg/kg/day, ip administered for 15 days; assay type: functional, organism-based; conditions: dose 12.5-25 mg/kg/day, time 15.0 day
MDA-MB-231 [30] = test: Downregulation of RXRalpha protein level in human MDA-MB-231 cells at 125 nM measured after 1 to 24 hrs by Western blot analysis; assay type: functional, cell-based; conditions: time 1-24 hrs
HeLa = test: Inhibition of MYC tagged pRXRalpha-FLAG tagged PLK1 (unknown origin) protein-protein interaction transfected in human HeLa cells at 500 nM incubated for 3 hrs by co-immunoprecipitation assay; assay type: cell-based

SMILES: O=C(/C=C/c1ccccc1)Nc1cc(-c2ccnc(N3CCC(CO)CC3)c2)ccn1
- Activity (A549 [1]): 51.91%
- IC50 (NCI-H460): 0.253 µM
- IC50 (HepG2): 0.128 µM
- IC50 at 72 h [2]: 18.6 µM
- Activity (A549 [3]): 45.99%
- Activity (A549 [4]): 2.24%
- Activity (A549 [5]): 18.11%
- Activity (A549 [6]): 2.76%
- Activity (A549 [7]): 11.4%
- Activity (A549 [8]): 3.98%
- Activity (MDA-MB-231 [9]): 42.77%
- Activity (A549 [10]): 59.06%
- Activity (A549 [11]): 31.99%
- Activity (A549 [12]): 8.95%
- Activity (A549 [13]): 32.4%
- Activity (A549 [14]): 8.76%
- Activity (A549 [15]): 16.45%
- Activity (A549 [16]): 37.15%
- Activity (MDA-MB-231 [17]): 14.7%
- Activity (MDA-MB-231 [18]): 2.47%
- Activity (MDA-MB-231 [19]): 19.2%
- Activity (MDA-MB-231 [20]): 2.78%
- Activity (MDA-MB-231 [21]): 57.9%
- Activity (MDA-MB-231 [22]): 20.2%
- Activity (MDA-MB-231 [23]): 1.67%
- CL/F [24]: 25.8 mL/min/kg
- Vd/F [25]: 5.15 L/kg
- Activity (MDA-MB-231 [26]): Active
- Activity (MDA-MB-231 [27]): Active
- Activity (MDA-MB-231 [28]): Active
- Activity (MDA-MB-231 [29]): Active
- Activity (MDA-MB-231 [30]): Active
- inhibition (HeLa): Active
